Results taken from publication PMC11219871, “Epigenetic-based differentiation therapy for Acute Myeloid Leukemia” (Nature Communications, 2024).
pIC50: −log10 of the molar value.

Experiments:
Assay in all cases: Epigenetic panel (BPS Bioscience)
Type in all cases: biochemical
JMJD2B = molecular target: T1, JMJD2B (Homo sapiens, UniProt O94953)
T1 construct: purchased BPS Bioscience; Eurofins (HDAC4, 5, 7-11)
Procedure, shortened: (§1)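 Single-point screen: 10 μM compound, duplicate wells. Compounds: CM-444, CM-1758.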

Jarid1A = molecular target: T2, Jarid1A (Homo sapiens, UniProt P29375)
T2 construct: purchased BPS Bioscience; Eurofins (HDAC4, 5, 7-11)
Procedure, shortened: as §1

EZH2 (Y641H) = molecular target: T3, EZH2 (Y641H) (Homo sapiens, UniProt Q15910, Y641H)
T3 construct: purchased BPS Bioscience; Eurofins (HDAC4, 5, 7-11)
Procedure, shortened: as §1

NSD2 = molecular target: T4, NSD2 (Homo sapiens, UniProt O96028)
T4 construct: purchased BPS Bioscience; Eurofins (HDAC4, 5, 7-11)
Procedure, shortened: as §1

DNMT3A/3L = molecular target: T5, DNMT3A/3L (Homo sapiens, UniProt Q9Y6K1)
T5 construct: purchased BPS Bioscience (contracted assay service)
Procedure, shortened: (§2)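 Selectivity profiling of CM-444 and CM-1758 used one test concentration, 10 μM, run twice per target.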

NSD1 = molecular target: T6, NSD1 (Homo sapiens, UniProt Q96L73)
T6 construct: purchased BPS Bioscience; Eurofins (HDAC4, 5, 7-11)
Procedure, shortened: as §1

SUV39H1 = molecular target: T7, SUV39H1 (Homo sapiens, UniProt O43463)
T7 construct: purchased BPS Bioscience; Eurofins (HDAC4, 5, 7-11)
Procedure, shortened: as §1

PRMT3 = molecular target: T8, PRMT3 (Homo sapiens, UniProt O60678)
T8 construct: purchased BPS Bioscience; Eurofins (HDAC4, 5, 7-11)
Procedure, shortened: as §1

SUV39H2 = molecular target: T9, SUV39H2 (Homo sapiens, UniProt Q9H5I1)
T9 construct: purchased BPS Bioscience; Eurofins (HDAC4, 5, 7-11)
Procedure, shortened: as §1

SETDB1 = molecular target: T10, SETDB1 (Homo sapiens, UniProt Q15047)
T10 construct: purchased BPS Bioscience; Eurofins (HDAC4, 5, 7-11)
Procedure, shortened: as §2

EZH2 (A738T) = molecular target: T11, EZH2 (A738T) (Homo sapiens, UniProt Q15910)
T11 construct: purchased BPS Bioscience; Eurofins (HDAC4, 5, 7-11)
Procedure, shortened: as §1

JMJD3 = molecular target: T12, JMJD3 (Homo sapiens, UniProt O15054)
T12 construct: purchased BPS Bioscience; Eurofins (HDAC4, 5, 7-11)
Procedure, shortened: as §1

SIRT2 = molecular target: T13, SIRT2 (Homo sapiens, UniProt Q8IXJ6)
T13 construct: purchased BPS Bioscience; Eurofins (HDAC4, 5, 7-11)
Procedure, shortened: as §1

EZH2 = molecular target: T14, EZH2 (Homo sapiens, UniProt Q15910)
T14 construct: purchased BPS Bioscience; Eurofins (HDAC4, 5, 7-11)
Procedure, shortened: as §1

PHF8 = molecular target: T15, PHF8 (Homo sapiens, UniProt Q9UPP1)
T15 construct: purchased BPS Bioscience; Eurofins (HDAC4, 5, 7-11)
Procedure, shortened: as §1

PRMT4 = molecular target: T16, PRMT4 (Homo sapiens, UniProt Q86X55)
T16 construct: purchased BPS Bioscience; Eurofins (HDAC4, 5, 7-11)
Procedure, shortened: as §1

SIRT3 = molecular target: T17, SIRT3 (Homo sapiens, UniProt Q9NTG7)
T17 construct: purchased BPS Bioscience; Eurofins (HDAC4, 5, 7-11)
Procedure, shortened: as §1

SIRT1 = molecular target: T18, SIRT1 (Homo sapiens, UniProt Q96EB6)
T18 construct: purchased BPS Bioscience; Eurofins (HDAC4, 5, 7-11)
Procedure, shortened: as §1

UTX = molecular target: T19, UTX (Homo sapiens, UniProt O15550)
T19 construct: purchased BPS Bioscience (contracted assay service)
Procedure, shortened: as §1

PRMT5 = molecular target: T20, PRMT5 (Homo sapiens, UniProt O14744)
T20 construct: purchased BPS Bioscience; Eurofins (HDAC4, 5, 7-11)
Procedure, shortened: as §1

JMJD2D = molecular target: T21, JMJD2D (Homo sapiens, UniProt Q6B0I6)
T21 construct: purchased BPS Bioscience; Eurofins (HDAC4, 5, 7-11)
Procedure, shortened: as §1

FBXL11 = molecular target: T22, FBXL11 (Homo sapiens, UniProt Q9Y2K7)
T22 construct: purchased BPS Bioscience; Eurofins (HDAC4, 5, 7-11)
Procedure, shortened: as §1

SIRT6 = molecular target: T23, SIRT6 (Homo sapiens, UniProt Q8N6T7)
T23 construct: purchased BPS Bioscience; Eurofins (HDAC4, 5, 7-11)
Procedure, shortened: as §1

P300 = molecular target: T24, P300 (Homo sapiens, UniProt Q09472)
T24 construct: purchased BPS Bioscience; Eurofins (HDAC4, 5, 7-11)
Procedure, shortened: as §1

JHDM1D = molecular target: T25, JHDM1D (Homo sapiens, UniProt Q6ZMT4)
T25 construct: purchased BPS Bioscience; Eurofins (HDAC4, 5, 7-11)
Procedure, shortened: as §1

SET8 = molecular target: T26, SET8 (Homo sapiens, UniProt Q9NQR1)
T26 construct: purchased BPS Bioscience; Eurofins (HDAC4, 5, 7-11)
Procedure, shortened: as §1

JMJD1B = molecular target: T27, JMJD1B (Homo sapiens, UniProt Q7LBC6)
T27 construct: purchased BPS Bioscience; Eurofins (HDAC4, 5, 7-11)
Procedure, shortened: as §1

SIRT5 = molecular target: T28, SIRT5 (Homo sapiens, UniProt Q9NXA8)
T28 construct: purchased BPS Bioscience; Eurofins (HDAC4, 5, 7-11)
Procedure, shortened: as §1

SMYD3 = molecular target: T29, SMYD3 (Homo sapiens, UniProt Q9H7B4)
T29 construct: purchased BPS Bioscience; Eurofins (HDAC4, 5, 7-11)
Procedure, shortened: as §1

T19 sequence (O15550 whole entry): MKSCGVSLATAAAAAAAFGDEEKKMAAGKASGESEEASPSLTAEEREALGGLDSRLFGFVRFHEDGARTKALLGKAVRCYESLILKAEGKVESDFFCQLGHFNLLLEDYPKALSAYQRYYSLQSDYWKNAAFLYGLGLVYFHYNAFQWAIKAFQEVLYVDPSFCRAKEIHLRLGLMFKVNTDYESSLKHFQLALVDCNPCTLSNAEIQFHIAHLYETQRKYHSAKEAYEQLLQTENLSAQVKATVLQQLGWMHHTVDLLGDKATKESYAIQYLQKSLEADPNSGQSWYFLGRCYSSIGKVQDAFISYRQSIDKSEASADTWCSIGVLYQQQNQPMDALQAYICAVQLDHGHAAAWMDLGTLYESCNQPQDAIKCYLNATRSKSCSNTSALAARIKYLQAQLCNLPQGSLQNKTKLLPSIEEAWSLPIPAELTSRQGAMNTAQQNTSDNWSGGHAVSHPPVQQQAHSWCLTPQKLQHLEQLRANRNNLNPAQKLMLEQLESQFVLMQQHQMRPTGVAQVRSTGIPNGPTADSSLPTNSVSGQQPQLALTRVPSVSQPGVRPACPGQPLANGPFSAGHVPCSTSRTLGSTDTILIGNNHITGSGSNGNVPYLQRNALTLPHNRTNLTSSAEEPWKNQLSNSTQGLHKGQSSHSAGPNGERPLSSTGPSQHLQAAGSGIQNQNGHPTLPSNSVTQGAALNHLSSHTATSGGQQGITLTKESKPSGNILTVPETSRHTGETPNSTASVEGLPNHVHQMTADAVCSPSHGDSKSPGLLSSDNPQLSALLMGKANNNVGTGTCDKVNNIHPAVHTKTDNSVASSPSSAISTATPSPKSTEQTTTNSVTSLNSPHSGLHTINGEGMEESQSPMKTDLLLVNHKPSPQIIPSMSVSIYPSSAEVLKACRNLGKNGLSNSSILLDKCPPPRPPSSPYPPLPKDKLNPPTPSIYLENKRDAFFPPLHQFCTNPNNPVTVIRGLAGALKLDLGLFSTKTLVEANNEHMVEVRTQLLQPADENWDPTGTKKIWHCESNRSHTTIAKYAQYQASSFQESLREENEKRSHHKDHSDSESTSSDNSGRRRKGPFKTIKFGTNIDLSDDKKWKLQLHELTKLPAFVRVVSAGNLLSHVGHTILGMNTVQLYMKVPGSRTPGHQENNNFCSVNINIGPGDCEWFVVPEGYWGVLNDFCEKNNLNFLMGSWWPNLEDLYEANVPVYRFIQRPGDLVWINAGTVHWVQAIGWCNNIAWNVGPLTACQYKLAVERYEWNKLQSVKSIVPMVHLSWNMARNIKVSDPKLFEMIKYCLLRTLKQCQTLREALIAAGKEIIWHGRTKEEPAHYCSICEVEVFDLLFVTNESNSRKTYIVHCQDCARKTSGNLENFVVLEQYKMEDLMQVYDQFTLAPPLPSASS
T5 sequence (Q9Y6K1 whole entry, looked up): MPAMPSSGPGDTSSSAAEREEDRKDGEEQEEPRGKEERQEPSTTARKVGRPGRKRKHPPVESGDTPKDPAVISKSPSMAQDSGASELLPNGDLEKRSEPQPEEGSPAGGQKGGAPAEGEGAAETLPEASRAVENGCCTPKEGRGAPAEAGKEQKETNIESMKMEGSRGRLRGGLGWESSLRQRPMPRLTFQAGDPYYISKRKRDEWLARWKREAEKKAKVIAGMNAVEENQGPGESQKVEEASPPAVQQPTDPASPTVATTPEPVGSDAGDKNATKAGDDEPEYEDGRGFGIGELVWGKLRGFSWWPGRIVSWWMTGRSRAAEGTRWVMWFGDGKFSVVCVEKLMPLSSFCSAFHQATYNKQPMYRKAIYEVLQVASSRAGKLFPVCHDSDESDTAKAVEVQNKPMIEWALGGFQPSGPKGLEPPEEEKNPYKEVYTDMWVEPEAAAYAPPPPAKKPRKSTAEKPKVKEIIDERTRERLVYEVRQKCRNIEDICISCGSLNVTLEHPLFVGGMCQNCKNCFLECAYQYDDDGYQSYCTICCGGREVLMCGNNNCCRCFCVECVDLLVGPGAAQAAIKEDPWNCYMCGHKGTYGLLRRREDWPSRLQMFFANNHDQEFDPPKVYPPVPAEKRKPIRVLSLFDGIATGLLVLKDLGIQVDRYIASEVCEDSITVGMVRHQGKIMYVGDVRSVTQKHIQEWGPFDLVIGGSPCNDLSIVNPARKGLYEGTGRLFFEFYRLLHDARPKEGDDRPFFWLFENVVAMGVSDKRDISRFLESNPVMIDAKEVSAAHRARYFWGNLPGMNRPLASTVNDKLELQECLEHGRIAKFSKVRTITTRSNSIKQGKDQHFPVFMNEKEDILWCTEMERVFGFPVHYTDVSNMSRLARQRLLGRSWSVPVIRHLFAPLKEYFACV
T5 sequence (Q9UJW3 whole entry partner): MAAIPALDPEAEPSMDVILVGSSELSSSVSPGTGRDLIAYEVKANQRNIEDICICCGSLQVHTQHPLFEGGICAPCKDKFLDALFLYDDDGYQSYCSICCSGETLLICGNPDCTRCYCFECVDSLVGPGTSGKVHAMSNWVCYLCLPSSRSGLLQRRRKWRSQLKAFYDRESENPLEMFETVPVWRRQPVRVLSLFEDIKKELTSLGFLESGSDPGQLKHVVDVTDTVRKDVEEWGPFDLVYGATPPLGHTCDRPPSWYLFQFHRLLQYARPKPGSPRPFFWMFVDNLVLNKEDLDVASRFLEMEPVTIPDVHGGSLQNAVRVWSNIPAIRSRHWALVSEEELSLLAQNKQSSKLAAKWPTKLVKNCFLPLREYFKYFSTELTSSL
T28 sequence (Q9NXA8 37-310): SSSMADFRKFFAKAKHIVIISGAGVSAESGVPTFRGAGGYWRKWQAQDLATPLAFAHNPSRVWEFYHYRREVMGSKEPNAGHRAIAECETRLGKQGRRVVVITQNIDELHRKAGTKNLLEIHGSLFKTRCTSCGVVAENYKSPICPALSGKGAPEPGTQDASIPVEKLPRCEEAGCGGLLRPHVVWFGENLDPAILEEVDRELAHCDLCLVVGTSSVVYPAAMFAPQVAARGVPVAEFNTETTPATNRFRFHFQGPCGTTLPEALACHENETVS
T22 sequence (Q9Y2K7 whole entry): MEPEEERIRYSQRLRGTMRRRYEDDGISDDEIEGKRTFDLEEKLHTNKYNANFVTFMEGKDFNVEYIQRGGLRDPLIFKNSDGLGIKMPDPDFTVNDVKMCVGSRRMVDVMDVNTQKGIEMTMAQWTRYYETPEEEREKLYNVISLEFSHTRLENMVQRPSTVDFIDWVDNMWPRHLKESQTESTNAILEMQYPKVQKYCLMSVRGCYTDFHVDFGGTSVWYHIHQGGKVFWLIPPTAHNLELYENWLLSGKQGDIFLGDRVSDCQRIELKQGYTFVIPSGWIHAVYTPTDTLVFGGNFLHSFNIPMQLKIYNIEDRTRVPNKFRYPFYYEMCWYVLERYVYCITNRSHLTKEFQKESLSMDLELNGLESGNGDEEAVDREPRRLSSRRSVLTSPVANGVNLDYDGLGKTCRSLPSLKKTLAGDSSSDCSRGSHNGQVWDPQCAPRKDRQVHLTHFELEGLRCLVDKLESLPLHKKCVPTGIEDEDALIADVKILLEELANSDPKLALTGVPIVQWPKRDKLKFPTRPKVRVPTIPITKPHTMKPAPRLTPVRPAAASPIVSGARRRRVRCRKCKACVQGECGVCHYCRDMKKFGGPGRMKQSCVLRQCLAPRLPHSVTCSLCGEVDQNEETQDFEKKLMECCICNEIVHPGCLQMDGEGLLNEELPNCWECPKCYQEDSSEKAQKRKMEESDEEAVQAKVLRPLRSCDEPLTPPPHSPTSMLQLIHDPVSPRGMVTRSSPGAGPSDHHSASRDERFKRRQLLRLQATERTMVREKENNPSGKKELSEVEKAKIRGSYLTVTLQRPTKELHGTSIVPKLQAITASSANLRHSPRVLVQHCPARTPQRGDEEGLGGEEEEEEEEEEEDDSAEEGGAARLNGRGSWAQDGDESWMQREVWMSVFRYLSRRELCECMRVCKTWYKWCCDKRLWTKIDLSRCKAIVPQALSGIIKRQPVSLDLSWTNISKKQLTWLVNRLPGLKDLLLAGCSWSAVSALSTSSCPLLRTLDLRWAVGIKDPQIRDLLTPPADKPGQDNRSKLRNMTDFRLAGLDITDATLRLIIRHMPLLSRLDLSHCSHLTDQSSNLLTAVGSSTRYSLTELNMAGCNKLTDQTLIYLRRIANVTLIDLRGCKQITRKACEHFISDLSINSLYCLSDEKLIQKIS
T7 sequence (O43463 whole entry): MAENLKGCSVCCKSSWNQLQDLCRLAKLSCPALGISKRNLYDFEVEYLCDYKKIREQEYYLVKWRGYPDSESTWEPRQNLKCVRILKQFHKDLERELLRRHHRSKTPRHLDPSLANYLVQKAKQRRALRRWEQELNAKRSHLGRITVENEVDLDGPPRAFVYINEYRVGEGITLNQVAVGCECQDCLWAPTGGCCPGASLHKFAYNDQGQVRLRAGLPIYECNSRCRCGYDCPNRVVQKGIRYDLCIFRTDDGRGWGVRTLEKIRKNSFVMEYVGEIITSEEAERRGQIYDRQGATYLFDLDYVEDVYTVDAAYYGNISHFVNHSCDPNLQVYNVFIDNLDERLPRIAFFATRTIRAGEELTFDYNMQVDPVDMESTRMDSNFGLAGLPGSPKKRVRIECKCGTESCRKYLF
T26 sequence (Q9NQR1 whole entry): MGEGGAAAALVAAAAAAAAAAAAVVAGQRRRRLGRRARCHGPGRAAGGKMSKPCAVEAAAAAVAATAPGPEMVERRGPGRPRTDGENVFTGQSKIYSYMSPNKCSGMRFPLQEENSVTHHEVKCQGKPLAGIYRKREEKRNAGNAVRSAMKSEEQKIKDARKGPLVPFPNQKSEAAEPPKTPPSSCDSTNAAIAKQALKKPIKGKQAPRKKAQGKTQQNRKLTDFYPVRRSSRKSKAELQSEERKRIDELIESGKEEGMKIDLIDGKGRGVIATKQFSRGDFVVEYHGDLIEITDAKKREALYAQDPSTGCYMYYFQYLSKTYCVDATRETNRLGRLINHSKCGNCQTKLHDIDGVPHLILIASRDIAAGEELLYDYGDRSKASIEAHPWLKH

Question: With `COc1cc2nc(-c3cc(C)oc3C)cc(NCC3CCN(c4ncc(C(=O)NO)cn4)CC3)c2cc1OC` [CM-1758, 2-[4-[[[2-(2,5-dimethyl-3-furyl)-6,7-dimethoxy-4-quinolyl]amino]methyl] -1-piperidyl]pyrimidine-5-carbohydroxamic acid] as the molecule, how does the inhibition at 10 µM (JMJD2B) read?
Answer: Its inhibition at 10 µM is 10%.

Question: What about the inhibition at 10 µM (Jarid1A) of the same molecule?
Answer: Its inhibition at 10 µM is 47%.

Question: What about the inhibition at 10 µM (EZH2 (Y641H)) of the same molecule?
Answer: Its inhibition at 10 µM is 0%.

Question: What about the inhibition at 10 µM (NSD2) of the same molecule?
Answer: The inhibition at 10 µM was 16%.

Question: What about the inhibition at 10 µM (DNMT3A/3L) of the same molecule?
Answer: The inhibition at 10 µM was 44%.

Question: What about the inhibition at 10 µM (NSD1) of the same molecule?
Answer: The inhibition at 10 µM was 10%.

Question: And the inhibition at 10 µM (SUV39H1)?
Answer: Its inhibition at 10 µM is 1%.

Question: What about the inhibition at 10 µM (PRMT3) of the same molecule?
Answer: The inhibition at 10 µM was 0%.

Question: What about the inhibition at 10 µM (SUV39H2) of the same molecule?
Answer: The inhibition at 10 µM was 1%.

Question: What about the inhibition at 10 µM (SETDB1) of the same molecule?
Answer: Its inhibition at 10 µM is 3%.

Question: What about the inhibition at 10 µM (EZH2 (A738T)) of the same molecule?
Answer: Its inhibition at 10 µM is 5%.

Question: What about the inhibition at 10 µM (JMJD3) of the same molecule?
Answer: The inhibition at 10 µM was 20%.

Question: What about the inhibition at 10 µM (SIRT2) of the same molecule?
Answer: Its inhibition at 10 µM is 0%.

Question: What about the inhibition at 10 µM (EZH2) of the same molecule?
Answer: The inhibition at 10 µM was 0%.

Question: And the inhibition at 10 µM (PHF8)?
Answer: Its inhibition at 10 µM is 12%.

Question: And the inhibition at 10 µM (PRMT4)?
Answer: Its inhibition at 10 µM is 0%.

Question: What about the inhibition at 10 µM (SIRT3) of the same molecule?
Answer: The inhibition at 10 µM was 9%.

Question: And the inhibition at 10 µM (SIRT1)?
Answer: The inhibition at 10 µM was 1%.

Question: What about the pIC50 (UTX) of the same molecule?
Answer: The pIC50 was 5.66.

Question: What about the inhibition at 10 µM (UTX) of the same molecule?
Answer: Its inhibition at 10 µM is 91%.

Question: And the inhibition at 10 µM (PRMT5)?
Answer: Its inhibition at 10 µM is 7%.

Question: And the inhibition at 10 µM (JMJD2D)?
Answer: The inhibition at 10 µM was 0%.

Question: What about the inhibition at 10 µM (FBXL11) of the same molecule?
Answer: Its inhibition at 10 µM is 2%.

Question: What about the inhibition at 10 µM (SIRT6) of the same molecule?
Answer: Its inhibition at 10 µM is 4%.

Question: What about the inhibition at 10 µM (P300) of the same molecule?
Answer: The inhibition at 10 µM was 0%.

Question: What about the inhibition at 10 µM (JHDM1D) of the same molecule?
Answer: Its inhibition at 10 µM is 37%.

Question: What about the inhibition at 10 µM (SET8) of the same molecule?
Answer: Its inhibition at 10 µM is 9%.

Question: And the inhibition at 10 µM (JMJD1B)?
Answer: The inhibition at 10 µM was 11%.

Question: And the inhibition at 10 µM (SIRT5)?
Answer: Its inhibition at 10 µM is 2%.

Question: And the inhibition at 10 µM (SMYD3)?
Answer: The inhibition at 10 µM was 21%.

Question: For `COc1cc2nc(-c3ccc(C)o3)cc(NCC3CCN(c4ncc(C(=O)NO)cn4)CC3)c2cc1OC` [CM-444, 2-[4-[[[6,7-dimethoxy-2-(5-methyl-2-furyl)-4-quinolyl]amino]methyl]-1-piperidyl]pyrimidine-5-carbohydroxamic acid], which inhibition at 10 µM (JMJD2B) is on record?
Answer: The inhibition at 10 µM was 1%.

Question: And the inhibition at 10 µM (Jarid1A)?
Answer: The inhibition at 10 µM was 16%.

Question: What about the inhibition at 10 µM (EZH2 (Y641H)) of the same molecule?
Answer: Its inhibition at 10 µM is 0%.

Question: What about the inhibition at 10 µM (NSD2) of the same molecule?
Answer: Its inhibition at 10 µM is 35%.

Question: What about the pIC50 (DNMT3A/3L) of the same molecule?
Answer: The pIC50 was 5.74.

Question: What about the inhibition at 10 µM (DNMT3A/3L) of the same molecule?
Answer: Its inhibition at 10 µM is 92%.

Question: What about the inhibition at 10 µM (NSD1) of the same molecule?
Answer: Its inhibition at 10 µM is 14%.

Question: What about the inhibition at 10 µM (SUV39H1) of the same molecule?
Answer: Its inhibition at 10 µM is 1%.

Question: What about the inhibition at 10 µM (PRMT3) of the same molecule?
Answer: Its inhibition at 10 µM is 0%.

Question: What about the inhibition at 10 µM (SUV39H2) of the same molecule?
Answer: The inhibition at 10 µM was 0%.

Question: And the inhibition at 10 µM (SETDB1)?
Answer: The inhibition at 10 µM was 0%.

Question: And the inhibition at 10 µM (EZH2 (A738T))?
Answer: The inhibition at 10 µM was 5%.

Question: And the inhibition at 10 µM (JMJD3)?
Answer: Its inhibition at 10 µM is 21%.

Question: And the inhibition at 10 µM (SIRT2)?
Answer: Its inhibition at 10 µM is 14%.

Question: What about the inhibition at 10 µM (EZH2) of the same molecule?
Answer: Its inhibition at 10 µM is 0%.

Question: What about the inhibition at 10 µM (PHF8) of the same molecule?
Answer: Its inhibition at 10 µM is 6%.

Question: What about the inhibition at 10 µM (PRMT4) of the same molecule?
Answer: Its inhibition at 10 µM is 0%.

Question: What about the inhibition at 10 µM (SIRT3) of the same molecule?
Answer: The inhibition at 10 µM was 0%.

Question: What about the inhibition at 10 µM (SIRT1) of the same molecule?
Answer: Its inhibition at 10 µM is 13%.

Question: What about the pIC50 (UTX) of the same molecule?
Answer: Its pIC50 is 5.82.

Question: What about the inhibition at 10 µM (UTX) of the same molecule?
Answer: Its inhibition at 10 µM is 95%.

Question: What about the inhibition at 10 µM (PRMT5) of the same molecule?
Answer: Its inhibition at 10 µM is 0%.

Question: And the inhibition at 10 µM (JMJD2D)?
Answer: Its inhibition at 10 µM is 5%.

Question: And the inhibition at 10 µM (FBXL11)?
Answer: The inhibition at 10 µM was 33%.

Question: What about the inhibition at 10 µM (SIRT6) of the same molecule?
Answer: The inhibition at 10 µM was 15%.

Question: And the inhibition at 10 µM (P300)?
Answer: The inhibition at 10 µM was 10%.

Question: What about the inhibition at 10 µM (JHDM1D) of the same molecule?
Answer: Its inhibition at 10 µM is 4%.

Question: And the inhibition at 10 µM (SET8)?
Answer: The inhibition at 10 µM was 4%.

Question: What about the inhibition at 10 µM (JMJD1B) of the same molecule?
Answer: Its inhibition at 10 µM is 6%.

Question: What about the inhibition at 10 µM (SIRT5) of the same molecule?
Answer: The inhibition at 10 µM was 7%.

Question: And the inhibition at 10 µM (SMYD3)?
Answer: Its inhibition at 10 µM is 35%.
